# Conditions: buffer; pH 7.4; 200.0 µM
row,Compound,solubility kinetic
1,Cc1cc(C(=O)COc2ccccc2C(N)=O)c(C)n1C1CC1,7 µg/mL
2,COc1ccc(NCc2cc(=O)[nH]c3ccccc23)cc1,8 µg/mL
3,O=C(/C=C/c1ccco1)NC(=S)Nc1ccccc1,17.2 µg/mL
4,O=C(CNC(=O)c1ccc(Cl)cc1)c1ccccc1,6 µg/mL
5,CCC(=O)NC1CC2CCCC(C1)N2Cc1ccc(C)cc1 (stereo not given),> 45.1 µg/mL
6,CC(=O)c1ccccc1OCC(O)Cn1ccnc1 (stereo not given),38.2 µg/mL
7,CCOc1ccc(C2NC(=O)Cc3cc(OC)c(OC)cc32)cc1 (stereo not given),> 49.1 µg/mL
8,O=C(CN1CCCC1c1cccs1)Nc1cc(S(=O)(=O)N2CCCC2)ccc1Cl (stereo not given),1.6 µg/mL
9,CC(Oc1ccc2c(-c3ccccc3)cc(=O)oc2c1)C(=O)NC(Cc1c[nH]c2ccccc12)C(=O)O (stereo not given),> 74.5 µg/mL
10,CCOC(=O)CNC(=S)N(Cc1ccccc1)Cc1cccs1,19.8 µg/mL
11,S=C(Nc1ccc(Cl)cc1)Nc1ccc2c(c1)OCCO2,8.9 µg/mL
12,S=C(NCCc1cccc(Cl)c1)NC1CCCCC1,10.5 µg/mL
13,COc1ccc(/C=C(\C#N)C(=O)N2COCC2(C)C)cc1,> 42.9 µg/mL
14,Cc1ccc(C(=O)N/C(=C\c2cccnc2)C(=O)N2CCCC2)cc1,> 50.3 µg/mL
15,Cn1c(=O)c([N+](=O)[O-])c(NCC2CCCO2)c2ccccc21 (stereo not given),> 45.5 µg/mL
16,Oc1ccccc1C=NCCCCCCN=Cc1ccccc1O,47.4 µg/mL
17,Cc1ccccc1NC(=O)C1CC(=O)OC12CCOC(C)(C)C2 (stereo not given),> 47.6 µg/mL
18,CCN(CC)S(=O)(=O)c1ccc2oc(Nc3ccccc3)nc2c1,6.4 µg/mL
19,O=C(C(=S)N1CCOCC1)c1c[nH]c2ccccc12,> 41.2 µg/mL
20,N#CCCN(Cc1cccs1)C(=O)Nc1ccccc1,41.1 µg/mL
21,O=C(NCc1ccccc1Cl)C1CCN(c2cnccn2)CC1,> 49.6 µg/mL
22,O=C(N/N=C/c1ccccc1Br)C1CC1,> 40.1 µg/mL
23,COc1ccc(C(=O)Nc2ccc(C(=O)Nc3cccnc3)cc2)cc1,0.6 µg/mL
24,Cc1cnc(NC(=O)CCc2ccccc2)s1,8.7 µg/mL
25,Br.COc1ccc(NC2=NCCCCC2)cc1,44.7 µg/mL
26,COCCNC(=O)C(=O)Nc1cc2c3c(c1)CCC(=O)N3CCC2,46.4 µg/mL
27,COC(=O)N1CCN(CCc2ccccc2)CC1,> 37.2 µg/mL

row,Compound,solubility kinetic
1,COc1ccccc1NC(=O)C[n+]1ccccc1C.[Cl-],41 µg/mL
2,COc1cccc(NC(=O)COc2ccc3c(c2)CCC3)c1,1.3 µg/mL
3,COc1ccccc1-c1cc(C(=O)N2CCOCC2)no1,> 43.2 µg/mL
4,COC(=O)c1ccc(/C=C/C(=O)OCC(=O)NCc2cccs2)cc1,27.4 µg/mL
5,Cl.NCCSC1CC(=O)N(c2ccc(F)cc2)C1=O (stereo not given),29.5 µg/mL
6,O=C(OCC(=O)N1CCOCC1)c1ccccc1OCc1ccccc1Cl,54.9 µg/mL
7,CC(O)c1cccc(NC(=O)Cc2cccc3ccccc23)c1 (stereo not given),44.7 µg/mL
8,Cc1cc(NC(=O)c2ccno2)no1,> 29 µg/mL
9,COc1cccc(/C=C(\C#N)c2nc3ccccc3[nH]2)c1OCC(=O)O,> 52.4 µg/mL
10,Cc1cc(C)cc(OCC(=O)OCC(=O)NC2CCCC2)c1,38.5 µg/mL
11,O=C(COC(=O)c1ccc(F)c(S(=O)(=O)N2CCOCC2)c1)c1ccccc1,6.3 µg/mL
12,O=[N+]([O-])c1ccc(-c2nc(-c3ccncc3)no2)cc1,1.3 µg/mL
13,CSc1ccccc1NC(=O)COc1ccccc1C,< 0.6 µg/mL
14,Cc1ccc(SCC(=O)OCC(=O)NC2(C#N)CCCCC2)cc1,47.6 µg/mL
15,O=C(Nc1ccc(Cl)cc1F)c1ccc2c(c1)C(=O)N(Cc1ccncc1)C2=O,10.8 µg/mL
16,CC(c1ccccc1)C1CC(=O)N(c2cc(Cl)ccn2)C1=O (stereo not given),> 47.2 µg/mL
17,c1ccc2c(c1)Sc1ccccc1N2CC1CN2CCC1CC2 (stereo not given),> 48.4 µg/mL
18,Cc1ccccc1CC(=O)NCc1cccnc1,> 36 µg/mL
19,O=C(Cc1ccc(F)cc1)N1CCN(c2ccc([N+](=O)[O-])cc2)CC1,3.5 µg/mL
20,CC(=O)NCc1ccc(S(=O)(=O)N2CCCN(C)CC2)cc1.Cl,> 54.3 µg/mL
21,Cc1nonc1NC(=O)CSc1nnc(N)s1,> 40.8 µg/mL
22,CCCCc1nc2cc(C(=O)NCc3cn(C)nc3C)ccc2o1,> 49 µg/mL
23,Cc1nc(N(C)Cc2ccccc2)c2c(C)c(C)sc2n1,4.2 µg/mL
24,Cc1ccc(C(C)NC(=O)c2ccncc2)c(C)c1 (stereo not given),> 38.1 µg/mL
25,c1ccc(Oc2cccc3cccnc23)nc1,32.5 µg/mL
26,Cc1cccc(NC(=O)C2CCN(S(C)(=O)=O)CC2)c1C,> 46.6 µg/mL
27,O=C(NCCCn1ccnc1)c1ccc(-c2cccc(C(F)(F)F)c2)o1,> 54.5 µg/mL

row,Compound,solubility kinetic
1,C=CCn1c(NC(=O)c2ccc(C)cc2)nc2ccccc21,< 0.2 µg/mL
2,CC(=O)c1c(C)n(CCc2ccc(Cl)cc2)c2ccc(O)cc12,< 0.7 µg/mL
3,O=C1NC(=Nc2ccccc2)S/C1=C/c1cccnc1,1.2 µg/mL
4,Cc1ccc(C(=O)N(C)CC(=O)Nc2cccc(C)c2C)o1,> 45.1 µg/mL
5,CC(=O)Nc1ccc(C=C(C(C)=O)C(C)=O)cc1,> 36.8 µg/mL
6,N#Cc1c(-c2ccco2)ccn(Cc2ccc(F)cc2)c1=O,9 µg/mL
7,CC(C)N(Cc1cnn(C)c1)Cc1nc(Cc2ccccc2Cl)no1,> 54 µg/mL
8,Nc1cc([N+](=O)[O-])cc2oc(-c3ccccc3)cc12,< 0.3 µg/mL
9,CC(=O)Cn1ncc(N2CCOCC2)c(Cl)c1=O,> 40.8 µg/mL
10,Cc1ccccc1CN(C)C1CCN(C)CC1,31.7 µg/mL
11,CC(=O)c1cccc(S(=O)(=O)Nc2ccccc2N2CCOCC2)c1,> 54.1 µg/mL
12,COCCCNc1ccc([N+](=O)[O-])cc1C(=O)Nc1cccc(C)n1,2.9 µg/mL
13,Nc1nc(NCCOCCO)nc(NCC2CCCO2)c1[N+](=O)[O-] (stereo not given),> 51.4 µg/mL
14,CC(C)Oc1ccc(C(=O)NC2=NCCS2)cc1,23.1 µg/mL
15,CNC(=O)CSc1nnc(-c2ccco2)n1-c1ccccc1,> 47.2 µg/mL
16,Cc1cccc(OC(=O)c2cccnc2)c1C,25 µg/mL
17,CC(=O)Oc1ccc(-c2nc3cc(Cl)ccc3c(=O)o2)cc1,1.7 µg/mL
18,O=C(Nc1cccc(S(=O)(=O)N2CCCC2)c1)c1cncc(Br)c1,60.4 µg/mL
19,O=C(Nc1ccc(Cl)cn1)c1ccc2nccnc2c1,3.6 µg/mL
20,CN1C(=O)c2ccccc2C(C(=O)O)C1c1cccc([N+](=O)[O-])c1 (stereo not given),> 48.9 µg/mL
21,CC(C)C(NC(=O)c1ccccc1)C(=O)N1CCCCCC1 (stereo not given),> 45.4 µg/mL
22,COc1ccc2[nH]c3c(c2c1)CCNC3C.Cl (stereo not given),30.1 µg/mL
23,O=C(O)CC(NC(=O)Cc1ccccc1)c1ccccc1 (stereo not given),27.4 µg/mL
24,Cl.Nc1ccc(Oc2cc(N)cc(Oc3ccccc3)c2)cc1,30.1 µg/mL
25,COc1ccc(OC)c2c1sc(=NC(=O)C1COc3ccccc3O1)n2C (stereo not given),< 0.4 µg/mL
26,O=C(O)CSc1c2c(nc3cc(C(=O)N4CCCC4)ccc13)CCCC2,48.6 µg/mL

# Further lines, results first:
row,solubility kinetic,Compound
1,> 40.7 µg/mL,COc1cc2ccccc2cc1C(=O)N1CCOCC1
2,33.8 µg/mL,O=Nc1[nH]c(=O)c(/C=C(\O)c2ccccc2)nc1NO
3,> 27.8 µg/mL,O=c1c2c([nH]c3ccccc13)CCC2
4,> 48.6 µg/mL,CN(C(=O)COC(=O)Cc1ccc(Cl)cc1)C1CCCCC1
5,2.4 µg/mL,O=C(Nc1nc(-c2ccccn2)cs1)Nc1ccc(F)cc1F
6,4.3 µg/mL,Cc1cc2oc(=O)cc(CN3CCOCC3)c2cc1Cl
7,> 44.2 µg/mL,Cc1cc(NS(=O)(=O)c2c(C)c(C)cc(C)c2C)no1
8,4.5 µg/mL,O=C1COc2ccc(C(=O)COC(=O)c3ccccc3Cl)cc2N1
9,9.3 µg/mL,O=C(COC(=O)c1ccc(Br)o1)Nc1cccc(S(=O)(=O)N2CCCCC2)c1
10,21.6 µg/mL,NS(=O)(=O)c1cccc(C(=O)OCC(=O)NC2CCCc3ccccc32)c1 (stereo not given)
11,21.1 µg/mL,Cc1ccc(NC(=O)CCc2ccc(C)o2)cc1
12,0.7 µg/mL,COc1cc(N2CCOCC2)ccc1C=C(C#N)C#N
13,37 µg/mL,Cc1ccc(C(=O)N2c3ccccc3OCC2C)cc1 (stereo not given)
14,> 43.8 µg/mL,NS(=O)(=O)c1ccc(CNC(=O)c2cnccn2)cc1
15,41.1 µg/mL,CN(Cc1nc(Cc2cccc(F)c2)no1)CC1CCOCC1
16,> 42.4 µg/mL,O=C(CCNS(=O)(=O)c1ccccc1)N1CCCC1
17,11.6 µg/mL,CCCC(=O)Nc1cccc(Oc2ccc3c(c2)C(=O)NC3=O)c1
18,35.8 µg/mL,COC(=O)c1cc(C(=O)OC)cc(-n2c(C)cc(C=O)c2C)c1
19,6.1 µg/mL,CC(=O)N1c2ccccc2C2(C)C(C1(C)C)C2(Cl)Cl (stereo not given)
20,1.5 µg/mL,CC(=O)c1ccccc1NS(=O)(=O)c1cccc2nsnc12

row,solubility kinetic,Compound
1,9.1 µg/mL,O=C(NCC1CC1(Cl)Cl)Nc1ccc(Cl)c(Cl)c1 (stereo not given)
2,15.1 µg/mL,O=C(Nc1ccc(N2CCOCC2)cc1)c1cccc(S(=O)(=O)N2CCOCC2)c1
3,> 55.4 µg/mL,COc1ccc(/C=N/NC(=O)c2ccccc2O)cc1CN1CCOCC1
4,> 46.4 µg/mL,COC(=O)c1c(C)oc(C)c1S(=O)(=O)Nc1ccccc1
5,> 43.5 µg/mL,O=[N+]([O-])c1cccc(C(O)C23CN4CN(CN(C4)C2)C3)c1 (stereo not given)
6,42.2 µg/mL,CC(C)N1CCN(Cc2cccc3nonc23)CC1CCO (stereo not given)
7,14.1 µg/mL,O=C(COC(=O)c1ccco1)NCc1ccc(Cl)cc1Cl
8,26.4 µg/mL,Cc1cc(C)nc(Nc2ccccc2F)n1.Cl
9,> 42.7 µg/mL,Cc1ccc(CN2C(=O)CSC2c2cccnc2)cc1 (stereo not given)
10,> 49.4 µg/mL,O=C(CCc1ccccc1)Nc1sc2c(c1C(=O)O)CCCC2
11,> 52 µg/mL,CC1(C)Cc2nc3sc4c(NCCO)ncnc4c3cc2CS1
12,> 33.9 µg/mL,Cc1cc(C)cc(C(=O)Nc2ccncc2)c1
13,> 52.3 µg/mL,Cc1nc(C(=O)N2CCCC(C(=O)c3ccc(Cl)cc3)C2)cs1 (stereo not given)
14,> 44.6 µg/mL,CN(C(=O)c1ccc2c(c1)OCO2)C1CCS(=O)(=O)C1 (stereo not given)
15,46.6 µg/mL,C=CCn1c(SCC(N)=O)nc2nc3c(cc2c1=O)COC(C)(C)C3
16,19.5 µg/mL,CC(=O)N(CCC(c1ccco1)C(C)C)Cc1ccc(OC(C)C)cc1 (stereo not given)
17,2.9 µg/mL,COc1nc2ccccc2nc1N1CCN(Cc2ccc3c(c2)OCO3)CC1
18,0.5 µg/mL,Clc1cccc(C2Nc3cccc4cccc(c34)N2)c1Cl
19,5.9 µg/mL,O=C(COC(=O)c1ccc(F)cc1)NCCCc1ccccc1
20,> 39.2 µg/mL,CCN1C(=O)CC(c2ccc(OC(C)C)cc2)C1=O (stereo not given)

# Source: PubChem BioAssay AID1996
